Experimental findings from ChEMBL document CHEMBL4002627, “Quinolidene based monocarbonyl curcumin analogues as promising antimycobacterial agents: Synthesis and molecular docking study” (Bioorg Med Chem Lett, 2017) are described below.

Holding throughout (assay type): functional
Assay [1] deals with Mycobacterium tuberculosis. In words: Antimycobacterial activity against dormant state of Mycobacterium bovis BCG assessed as growth inhibition at 3 ug/ml after 12 days by nitrate reductase assay relative to control. To be noted: variant bovis BCG, 288 h, read-out: GI.
The subject of assay [2] is Mycobacterium tuberculosis. The assay is described as follows: Antimycobacterial activity against dormant state of Mycobacterium bovis BCG by two fold dilution method. To be noted: variant bovis BCG.
The subject of assay [3] is Mycobacterium tuberculosis. The assay is described as follows: Antimycobacterial activity against dormant state of Mycobacterium bovis BCG assessed as growth inhibition at 10 ug/ml after 12 days by nitrate reductase assay relative to control. To be noted: variant bovis BCG, 288 h, read-out: GI.
Assay [4] deals with Mycobacterium tuberculosis. The assay is described as follows: Antimycobacterial activity against dormant state of Mycobacterium bovis BCG assessed as growth inhibition at 30 ug/ml after 12 days by nitrate reductase assay relative to control. As to conditions: variant bovis BCG, 288 h, read-out: GI.

Values after ≈ are worked out from the molar mass of the structure shown. A value given as a limit tells only on which side of the number the result lay.

In the case of `O=C1/C(=C/c2cc3ccccc3nc2Cl)CNC/C1=C\c1cc2ccccc2nc1Cl`, the inhibition of growth at 3 µg/mL in assay [1] turned out to be 38.3%. In assay [2], this molecule showed an MIC50 of 9.6 µg/mL (≈ 21.5 µM) and an MIC90 of more than 30 µg/mL. Besides, in assay [3], the inhibition of growth at 10 µg/mL came to 50.6%. In assay [4], the inhibition of growth at 30 µg/mL turned out to be 79.7%.
On to `COc1ccc2cc(/C=C3\CNC/C(=C\c4cc5ccc(OC)cc5nc4Cl)C3=O)c(Cl)nc2c1`, for which the inhibition of growth at 3 µg/mL in assay [1] came out at 94.6%. Moreover, in assay [2], the MIC50 was found to be 1.4 µg/mL (≈ 2.76 µM) and the MIC90 was found to be 2.7 µg/mL (≈ 5.33 µM). Also, in assay [3], the inhibition of growth at 10 µg/mL is 98.3%. Also, the inhibition of growth at 30 µg/mL in assay [4] is 96.8%.
On to `CN1C/C(=C\c2cc3cc(Cl)ccc3nc2Cl)C(=O)/C(=C/c2cc3cc(Cl)ccc3nc2Cl)C1`, for which the inhibition of growth at 3 µg/mL in assay [1] stood at 49%. Also, in assay [2], the MIC50 was found to be 3.3 µg/mL (≈ 6.24 µM) and the MIC90 was determined as 21.5 µg/mL (≈ 40.6 µM). Also, the inhibition of growth at 10 µg/mL in assay [3] was found to be 82.1%. The inhibition of growth at 30 µg/mL in assay [4] was determined as 96.2%.
`Cc1ccc2cc(/C=C3\CNC/C(=C\c4cc5ccc(C)cc5nc4Cl)C3=O)c(Cl)nc2c1`: the inhibition of growth at 3 µg/mL in assay [1] amounted to 33.8%. In assay [2], the MIC50 worked out at 12.9 µg/mL (≈ 27.2 µM) and the MIC90 was more than 30 µg/mL. The inhibition of growth at 10 µg/mL in assay [3] stood at 43.4%. The inhibition of growth at 30 µg/mL in assay [4] is 89.8%.
In the case of `O=C1/C(=C/c2cc3cc(Cl)ccc3nc2Cl)CNC/C1=C\c1cc2cc(Cl)ccc2nc1Cl`, the inhibition of growth at 3 µg/mL in assay [1] came out at 37.5%. In assay [2], this molecule displayed an MIC50 of 19.7 µg/mL (≈ 38.2 µM) and an MIC90 of more than 30 µg/mL. The inhibition of growth at 10 µg/mL in assay [3] was determined as 24.6%. Further, in assay [4], the inhibition of growth at 30 µg/mL was found to be 77.6%.
With `Cc1cccc2cc(/C=C3\CN(C)C/C(=C\c4cc5cccc(C)c5nc4Cl)C3=O)c(Cl)nc12`, the inhibition of growth at 3 µg/mL in assay [1] worked out at 19.1%. In assay [2], this molecule came in with an MIC50 of 20.8 µg/mL (≈ 42.6 µM) and an MIC90 of more than 30 µg/mL. Moreover, the inhibition of growth at 10 µg/mL in assay [3] is 35.9%. The inhibition of growth at 30 µg/mL in assay [4] is 62.4%.
Taken in the same sequence, the figures for `COc1ccc2cc(/C=C3\CN(C)C/C(=C\c4cc5ccc(OC)cc5nc4Cl)C3=O)c(Cl)nc2c1` were 22.3%, 5.8 µg/mL (≈ 11.1 µM), 9.4 µg/mL (≈ 18.1 µM), 95.6% and 92.4%.
Taken in the same sequence, the figures for `Cc1ccc2nc(Cl)c(/C=C3\CN(C)C/C(=C\c4cc5cc(C)ccc5nc4Cl)C3=O)cc2c1` were -5.7%, more than 30 µg/mL, more than 30 µg/mL, 1% and 20.2%.
For `Cc1cccc2cc(/C=C3\CNC/C(=C\c4cc5cccc(C)c5nc4Cl)C3=O)c(Cl)nc12`, the inhibition of growth at 3 µg/mL in assay [1] was determined as 52.1%. In assay [2], this molecule came in with an MIC50 of 2.5 µg/mL (≈ 5.27 µM) and an MIC90 of more than 30 µg/mL. The inhibition of growth at 10 µg/mL in assay [3] stood at 66.7%. In addition, the inhibition of growth at 30 µg/mL in assay [4] is 77.1%.
Take `CN1C/C(=C\c2cc3cc(F)ccc3nc2Cl)C(=O)/C(=C/c2cc3cc(F)ccc3nc2Cl)C1`: the inhibition of growth at 3 µg/mL in assay [1] came to 17.6%. In assay [2], this molecule had an MIC50 of 25.6 µg/mL (≈ 51.6 µM) and an MIC90 of more than 30 µg/mL. The inhibition of growth at 10 µg/mL in assay [3] was 1%. Further, the inhibition of growth at 30 µg/mL in assay [4] amounted to 63.8%.
Take `COc1ccc2nc(Cl)c(/C=C3\CNC/C(=C\c4cc5cc(OC)ccc5nc4Cl)C3=O)cc2c1`: the inhibition of growth at 3 µg/mL in assay [1] came to 28%. In assay [2], this molecule gave an MIC50 of 11 µg/mL (≈ 21.7 µM) and an MIC90 of 27.2 µg/mL (≈ 53.7 µM). In addition, the inhibition of growth at 10 µg/mL in assay [3] came out at 48.4%. In assay [4], the inhibition of growth at 30 µg/mL came out at 97.2%.
On to `Cc1ccc2nc(Cl)c(/C=C3\CNC/C(=C\c4cc5cc(C)ccc5nc4Cl)C3=O)cc2c1`, for which, in assay [1], the inhibition of growth at 3 µg/mL was found to be 35.3%. Moreover, in assay [2], the MIC50 is more than 30 µg/mL and the MIC90 is more than 30 µg/mL. Further, the inhibition of growth at 10 µg/mL in assay [3] worked out at 38.5%. Also, the inhibition of growth at 30 µg/mL in assay [4] was determined as 45.9%.
As to `CN1C/C(=C\c2cc3ccccc3nc2Cl)C(=O)/C(=C/c2cc3ccccc3nc2Cl)C1`, the inhibition of growth at 3 µg/mL in assay [1] amounted to 31.7%. In assay [2], this molecule displayed an MIC50 of 6 µg/mL (≈ 13 µM) and an MIC90 of 7.3 µg/mL (≈ 15.9 µM). In addition, the inhibition of growth at 10 µg/mL in assay [3] came to 61.7%. In addition, in assay [4], the inhibition of growth at 30 µg/mL came to 97.5%.
As for `O=C1/C(=C/c2cc3cc(F)ccc3nc2Cl)CNC/C1=C\c1cc2cc(F)ccc2nc1Cl`, the inhibition of growth at 3 µg/mL in assay [1] turned out to be 61.9%. Moreover, in assay [2], the MIC50 was 2.1 µg/mL (≈ 4.35 µM) and the MIC90 stood at 9.2 µg/mL (≈ 19.1 µM). Also, the inhibition of growth at 10 µg/mL in assay [3] was determined as 93.4%. Also, the inhibition of growth at 30 µg/mL in assay [4] was 96.1%.
Turning to `Cc1ccc2cc(/C=C3\CN(C)C/C(=C\c4cc5ccc(C)cc5nc4Cl)C3=O)c(Cl)nc2c1`, in assay [1], the inhibition of growth at 3 µg/mL worked out at 23.2%. Further, in assay [2], the MIC50 was 5.8 µg/mL (≈ 11.9 µM) and the MIC90 came out at 15.4 µg/mL (≈ 31.5 µM). Besides, the inhibition of growth at 10 µg/mL in assay [3] was determined as 89.4%. Further, the inhibition of growth at 30 µg/mL in assay [4] worked out at 90.4%.
`COc1ccc2nc(Cl)c(/C=C3\CN(C)C/C(=C\c4cc5cc(OC)ccc5nc4Cl)C3=O)cc2c1`: the inhibition of growth at 3 µg/mL in assay [1] was determined as 22.9%. In assay [2], this molecule came in with an MIC50 of more than 30 µg/mL and an MIC90 of more than 30 µg/mL. In addition, the inhibition of growth at 10 µg/mL in assay [3] amounted to 13.3%. Besides, the inhibition of growth at 30 µg/mL in assay [4] was determined as 31.9%.
In assay [2], `CO[C@H]1/C=C/O[C@@]2(C)Oc3c(C)c(O)c4c(O)c(c(/C=N/N5CCN(C)CC5)c(O)c4c3C2=O)NC(=O)/C(C)=C\C=C\[C@H](C)[C@H](O)[C@@H](C)[C@@H](O)[C@@H](C)[C@H](OC(C)=O)[C@@H]1C` [RIFAMPIN] came in with an MIC50 of 0.0043 µg/mL (≈ 0.00523 µM) and an MIC90 of 0.0173 µg/mL (≈ 0.021 µM).
